Like-named read-outs stand apart in the source and are kept apart here. Values belong to the molecule of their own block, whether it stands above or below them.
What was measured:
[1] = target: T1, human Aldose reductase (hAR) (Homo sapiens, UniProt P15121); assay: Fluorescence titration (quenching) of cofactor binding to hAR; conditions: for Kd: 0.5 μM protein
T1 construct: hexa-His (cleaved yes); made in house; host or cells: E. coli BL21
Procedure: (§1) The fluorescence intensities of hAR decreased gradually when the concentrations of quenchers (i.e. inhibitor and cofactors) were increased. The observed fluorescence data were used for calculating the fluorescence quenching (Q% = (F^0 − F)/F^0) where F is the measured fluorescence and F^0 is the fluorescence in the absence of quenchers.
(§2) Fluorescence titration was performed for the binding of NADPH to hAR at a protein concentration of 0.5 μM in 5 mM sodium phosphate buffer (pH 7.0) containing 100 μM DTT. The titration for NADP^+ binding to hAR was conducted at a protein concentration of 0.5 μM in 10 mM Tris-HCl buffer (pH 9.0) containing 100 μM DTT in 1.4 ml quartz cuvette by measuring fluorescence by SpectraMax M2 (Molecular Device, CA). The concentration of protein•NADP^+/NADPH complexes formed were measured by extensive quenching of protein fluorescence by varying the concentrations of NADP^+/NADPH at excitation and emission wavelengths of 295 and 365 nm, respectively following the procedure described by[43][44]. This method was extended for inhibitor (WY 14,643) binding to enzyme•NADPH complex at protein concentration of 0.5 μM in 5 mM sodium phosphate buffer (pH 7.0) containing 100 μM DTT by keeping saturated fixed 60 μM concentration of NADPH and by varying the concentrations of WY 14,643. The binding of inhibitor (WY 14,643) to enzyme•NADP^+ complex was measured at 0.5 μM protein concentration in 10 mM Tris-HCl buffer (pH 9.0) containing 100 μM DTT by keeping saturated fixed 60 μM concentration of NADP^+ and varying the WY 14,643. The concentrations of enzyme•NADP^+/NADPH•inhibitor complex formed were measured by quenching of fluorescence protein•NADP^+/NADPH complexes with excitation and emission wavelengths 295 and 365 nm, respectively.
The methodology described by van de Weert 2010 was followed in the binding constant determination. The fractional saturation (α) of protein by cofactors (NADP^+/NADPH) and by inhibitor (WY 14,643) binding to protein can be expressed in the form of fluorescence as follows;
The binding dissociation constants and stoichiometry for the binding of quenchers (cofactors and inhibitor) to protein were calculated by non-linear fitting to the experimental fluorescence data and results are shown in Table 1.

[2] = tested on: rat livers; design: method as in PMID 195342; conditions: cited from earlier work
[3] = target: T2, hAR•NADPH (Homo sapiens, UniProt P15121); assay: Fluorescence titration of inhibitor binding to the hAR•NADPH binary complex; conditions: 60 μM NADPH, 5 mM sodium phosphate pH 7.0
T2 construct: hexa-His (cleaved yes); made in house; host or cells: E. coli BL21
Procedure: as §1
as §2, with “This method was extended for inhibitor (WY 14,643) binding to enzyme•NADPH complex at protein concentration of 0.5 μM in 5 mM sodium phosphate buffer (pH 7.0) containing 100 μM DTT by keeping saturated fixed 60 μM concentration of NADPH and by varying the concentrations of WY 14,643.” left out, “The concentrations of enzyme•NADP^+/NADPH•inhibitor complex formed were measured by quenching of fluorescence protein•NADP^+/NADPH complexes with excitation and emission wavelengths 295 and 365 nm, respectively.” left out

[4] = target: T3, hAR•NADP^+ (Homo sapiens, UniProt P15121); assay: Fluorescence titration of inhibitor binding to the hAR•NADP^+ binary complex; conditions: 60 μM NADP^+, 10 mM Tris-HCl pH 9.0
T3 construct: hexa-His (cleaved yes); made in house; host or cells: E. coli BL21
Procedure: as §1
as §2, with “This method was extended for inhibitor (WY 14,643) binding to enzyme•NADPH complex at protein concentration of 0.5 μM in 5 mM sodium phosphate buffer (pH 7.0) containing 100 μM DTT by keeping saturated fixed 60 μM concentration of NADPH and by varying the concentrations of WY 14,643.” left out, “The concentrations of enzyme•NADP^+/NADPH•inhibitor complex formed were measured by quenching of fluorescence protein•NADP^+/NADPH complexes with excitation and emission wavelengths 295 and 365 nm, respectively.” left out

[5] = target: T1, human Aldose reductase (hAR); design: method as in PMID 17194029; conditions: cited from earlier work

Kd ([1]; NADPH binding to apo hAR, 5 mM sodium phosphate pH 7.0, 100 μM DTT, read-out: Kd(E-NADPH), equilibrium dissociation constant): 480 ± 40 nM
stoichiometry coefficient (n), E-NADPH ([1]; NADPH binding to apo hAR, 5 mM sodium phosphate pH 7.0): 1.25 ± 0.1
Compound: NC(=O)C1=CN([C@@H]2O[C@H](COP(=O)(O)OP(=O)(O)OC[C@H]3O[C@@H](n4cnc5c(N)ncnc54)[C@H](OP(=O)(O)O)[C@@H]3O)[C@@H](O)[C@H]2O)C=CC1 [NADPH]

Kd ([1]; NADP^+ binding to apo hAR, 10 mM Tris-HCl pH 9.0, 100 μM DTT, read-out: Kd(E-NADP^+), equilibrium dissociation constant): 210 ± 10 nM
stoichiometry coefficient (n), E-NADP^+ ([1]; NADP^+ binding to apo hAR, 10 mM Tris-HCl pH 9.0): 1.05 ± 0.03
fold higher affinity of NADP^+ than NADPH for hAR ([1]; fluorescence quenching data, oxidized vs reduced cofactor): 2 fold
Compound: NC(=O)c1ccc[n+]([C@@H]2O[C@H](COP(=O)([O-])OP(=O)(O)OC[C@H]3O[C@@H](n4cnc5c(N)ncnc54)[C@H](OP(=O)(O)O)[C@@H]3O)[C@@H](O)[C@H]2O)c1 [NADP^+]

Kd ([3]; 0.5 μM protein): 110 nM
stoichiometry coefficient (n), binding with hAR•NADPH complex [3]: 1.25 ± 0.06
Kd ([4]; 0.5 μM protein): 104 nM
stoichiometry coefficient (n), binding with hAR•NADP^+ complex [4]: 1.37 ± 0.05
Compound: Cc1cccc(Nc2cc(Cl)nc(SCC(=O)O)n2)c1C [WY 14,643, [4-Chloro-6-(2,3-xylidino)-2-pyrimidinylthio]acetic Acid]
increased capacity in oxidization of palmitoyl-coenzyme A [2]: 18 fold
Kii (intercept inhibition constant) ([5]; forward reaction (reduction of DL-glyceraldehyde)): 1.8 µM
Ki ([5]; forward reaction (reduction of DL-glyceraldehyde), read-out: Kis (the slope inhibition constant)): 1800 nM
mode of inhibition ([5]; oxidation of benzyl alcohol): pure non-competitive
pattern of inhibition ([5]; with respect to the reduction of DL-glyceraldehyde): classical non-competitive
